Assay results from article PMC10017027, “Design and Synthesis of Novel HIV-1 NNRTIs with Bicyclic Cores and with Improved Physicochemical Properties” (Journal of Medicinal Chemistry, 2023).
Where two headings read alike, the source gives them in different places.

What was measured:
HIV-1 HXB2 = test: MT-4 antiviral cytopathic effect assay, HXB2 wild-type virus; format: cell-based; details: Human immunodeficiency virus 1, MT4; HIV-1 HXB2 wild-type, MT-4 cells; read-out: EC50 HXB2
Protocol: (§1) The prepared compounds were tested for their anti-HIV-1 activity (Table 1). A viral cytopathic effect assay in MT-4 cells with HIV-1 IIIB virus was used to determine compound potency (EC50, 50% cell viability) in protecting virus induced cell killing. Compound cytotoxicity was assessed in MT-4 cells in the absence of virus (CC50, 50% cytotoxicity).
(§2) Compounds were tested in a high-throughput 384-well assay format for their ability to inhibit the virus replication-induced cytopathic effect in MT-4 cell cultures acutely infected with HIV-1 (IIIB strain), HXB2, HXB2-K103N, and HXB2-Y181C. Compounds were serially diluted (1:3) in DMSO on 384-well polypropylene plates and further diluted 200-fold into complete RPMI media (10% FBS, 1% P/S) using Biotek Micro Flow and an Agilent ECHO acoustic dispenser. Each plate contained up to eight test compounds, with negative (no drug control) and 5 μM AZT positive controls. MT-4 cells were further diluted in complete RPMI media and added to each plate using a Micro-Flo dispenser. After five days of incubation in a humidified and temperature-controlled incubator (37 °C), Cell Titer Glo (Promega) was added to the assay plates to quantify the amount of […]. EC50 and CC50 values were defined as the compound concentration that causes a 50% decrease in luminescence signal and were calculated using a sigmoidal dose-response model to generate curve fits.

[1] = MDCK permeability assay (A to B); format: in vitro ADME, Canine; details: dog, MDCK
From the text: Compounds were further tested in a Madin–Darby Canine Kidney (MDCK) assay to evaluate their potential for oral absorption. […] Additionally, there was no trend for better permeability when comparing arm I versus arm II when matched with the same core. The size of the B ring had the greatest influence on Papp with the trend being five-membered > six-membered > seven-membered rings (Table 1).
cMdr1-KO cells were maintained in Dulbecco’s modified Eagle’s medium (DMEM) with sodium pyruvate and GlutaMax, supplemented with 1% Pen/Strep and 10% fetal bovine serum in an incubator set at 37 °C, 90% humidity, and 5% CO2. MDCKII- cMdr1-KO cells were grown to confluence over 3 days on 96-well PET plates with 1 μm pore size, polyester membrane (Corning 3392). Experiments were run using HBSS donor buffer from Invitrogen containing an additional 10 mM HEPES, 15 mM glucose, and 0.1% BSA adjusted to pH 7.4. The receiver well had HBSS buffer supplemented with 1% BSA, 10 mM HEPES, 15 mM glucose, and the pH was adjusted to 7.4. TEER values were read to test membrane integrity at the beginning of the assay. The experiment was started by the addition of dosing solutions containing test compounds. Samples were taken from the donor compartment at 0/120 min and from the receiver compartment at 120 min. Each compound was tested in two separate replicate wells. All samples were immediately collected in a 72:8:20 MeCN/MeOH:H2O mix to precipitate protein and stabilize the test compounds. Cells were dosed on the apical side to determine forward (A to B) permeability. To test for non-specific binding and compound instability, the total amount of drug was quantified at the end of the experiment and compared to the material present in the original dosing solution as a percentage of recovery. Samples were analyzed by RF-QToF.

HIV-1 (IIIB strain) = test: MT-4 antiviral cytopathic effect assay, HIV-1 IIIB; format: cell-based
Protocol: as §1, §2

Compound: Cc1cc(C#N)cc(C)c1N1CC(=O)Nc2cnc(Nc3ccc(C#N)cc3)nc21 [Compound 3, 4-(2-((4-Cyanophenyl)amino)-6-oxo-6,7-dihydropteridin-8(5H)-yl)-3,5-dimethylbenzonitrile]
- EC50 (HIV-1 HXB2): 8.1 nM
- Papp A→B at 120 min ([1]; supplement CSV): 4.1 ×10⁻⁶ cm/s
- Papp A→B at 120 min ([1]; apparent permeability coefficient, A to B, pH 7.4): 4.1 ×10⁻⁶ cm/s
- EC50 (HIV-1 (IIIB strain); Human immunodeficiency virus 1, HXB2 / IIIB, range over HIV-1 IIIB and HXB2, read-out: EC50 against both wild-type viruses): 8.1 to 8.6 nM
- EC50 (HIV-1 (IIIB strain); Human immunodeficiency virus 1, IIIB, MT4, protects 50% of MT-4 cells against HIV-1-induced cell killing, HIV-1 IIIB, WT, read-out: EC50 MT4): 8.6 nM
- activity against the WT virus (HIV-1 (IIIB strain); preliminary biological data, in words): low nanomolar activity
